Consider one substance from patent US8853359B2, “Endokinin C/D-derived peptides” (University of Miyazaki, priority 2009, dated 2014).

What all share (assay type): in vivo, rat
The nature of data set [1]: paw size after subcutaneous administration of peptide alone to plantar. As to conditions: 10^-3M D-EKC/D (3) subcutaneous to plantar; for paw plantar size after administration of peptide alone: FIG. 10A. The protocol: 100 μlof saline or 10^−3M (100 nmol/100 D-EKC/D (3) was subcutaneously administered to rat plantar. Paw size was measured with time for 60 minutes after administration. Paw size (control) before administration was designated as the basal level, and increases in paw size were then calculated.

For data set [2], the system named is carrageenan-induced thermal hyperalgesia. Description: withdrawal latency to noxious thermal stimulation after carrageenan, intrathecal pre-administration of peptide. As to conditions: 10^-3M (10 nmol/10 μl) peptide intrathecal; 2% carrageenan 4 hours later; FIG. 9B. The protocol:
In Example 6, 10^−3M (10 nmol/10 μl) D-EKC/D (3), (5), or (7), Spantide I, or saline (10 μl) was administered to intrathecally catheterized rats via catheters. Four hours later, 100 μl of 2% carrageenan (2 mg/100 μl) was subcutaneously administered to rat plantar.
Meanwhile, noxious thermal stimulation was applied to paw plantar using infrared rays at 10-minute intervals after carrageenan administration. The time (latency period) required for withdrawal response to take place was measured. The latency period before untreated rats following noxious thermal stimulation was designated as the control latency period.

Data set [3] has as its system substance P-induced scratching behavior. The data set can be described thus: substance P-induced scratching behavior after intrathecal pre-administration of test peptide. How it is done: In Example 1, 10^−3M (10 nmol/10 μl) EKC/D or D-EKC/D (1), (2) or (3) was administered to intrathecally catheterized rats via catheters. After the predetermined time periods denoted on the horizontal axis in FIG. 1, the numbers of scratching events (scratching behavior) induced by intrathecal administration of 10^−3M (10 nmol/10 μl) substance P (hereafter, referred to as “SP”) were determined. Here, the expression “10^−3M (10 nmol/10 μl) EKC/D or D-EKC/D (1), (2), or (3) was administered” refers to a situation in which 10 μl in total of a solution (that is, 10^−3M solution) containing 10 nmol of EKC/D or D-EKC/D (1), (2), or (3) was all administered. The expression, “ . . . administration of 10^−3M substance P (10 nmol/10 μl)” refers to a situation in which 10 μl in total of a solution (that is, 10^−3M solution) containing 10 nmol of the substance was all administered. The same similarly applies below.
Meanwhile, saline (10 μl) was intrathecally administered to intrathecally catheterized rats via catheters and then, after 30 minutes, 10^−3M SP (10 nmol/10 μl) was intrathecally administered to the rats. The number of the thus induced scratching events was determined to be the number of scratching events in the control group. The control group is denoted with saline-4-SP in FIG. 1.
The vertical axis of the graph in FIG. 1 indicates changes in the numbers of scratching events (represented by relative values) due to administration of 10^−3M EKC/D or D-EKC/D (1), (2), or (3) when the number of scratching events (of untreated rats in a control group) induced by intrathecal administration of 10^−3M substance P was determined to be 100%. Meanwhile, the horizontal axis indicates the intervals between the administration of EKC/D, D-EKC/D (1), (2), or (3) and 10^−3M substance P. […]
The test was conducted with procedures similar to those in Example 1, except for 4 hours of interval between the administration of each test peptide and the administration of substance P. The concentration of each test peptide and that of substance P for administration were determined to be 10^−3M (10 nmol/10 μl), similarly to Example 1. The number of scratching events in the control group was determined with procedures similar to those in Example 1, such that substance P was administered at 30 minutes after administration of saline (10 μl) and then the number was determined.

Take “Ala-Tyr-Gln-Leu-Glu-His-Thr-Phe-Gln-DTrp-Leu-Leu-NH2 (AYQLEHTFQXLL; HELM PEPTIDE1{A.Y.Q.L.E.H.T.F.Q.[dW].L.L.[am]}$$$$V2.0; N-terminus assumed; SMILES CC(C)C[C@H](NC(=O)[C@H](CC(C)C)NC(=O)[C@@H](Cc1c[nH]c2ccccc12)NC(=O)[C@H](CCC(N)=O)NC(=O)[C@H](Cc1ccccc1)NC(=O)[C@@H](NC(=O)[C@H](Cc1c[nH]cn1)NC(=O)[C@H](CCC(=O)O)NC(=O)[C@H](CC(C)C)NC(=O)[C@H](CCC(N)=O)NC(=O)[C@H](Cc1ccc(O)cc1)NC(=O)[C@H](C)N)[C@@H](C)O)C(N)=O) [D-EKC/D (3)]”: the “inflammation reaction caused by the peptide” value in data set [1] was “no inflammation reaction took place”. The “paw plantar size after administration of peptide alone” value was “restored to near the basal (control) level” in data set [1] (60 minutes after administration) and “tentatively increased” in data set [1] (early after administration). Moreover, in data set [2], the “withdrawal time (latency period)” value is on record as “significant increases”. Moreover, the “number of scratching events induced by substance P, relative to control group (saline+SP = 100%)” value in data set [3] (10^-3M (10 nmol/10 μl) peptide intrathecal, 10^-3M SP 30 minutes after peptide, FIG. 1) is given as “about 20%”. The “number of scratching events induced by substance P, relative to control group” value in data set [3] (10^-3M peptide intrathecal, administration interval of 45 minutes, FIG. 1) is “almost the same effects were exhibited”. In data set [3] (Example 1, intervals of 4 hours, 8 hours, and 14 hours between peptide and SP, both 10^-3M), the “suppressive effects on substance P-induced scratching behavior” value is “significant suppressive effects”. Also, the “scratching behavior induced by substance P” value in data set [3] (Example 2, FIG. 2, 10^-3M peptide, SP 4 hours after peptide, control about 380 scratching) is “almost never induced”. Further, in data set [3] (Example 2, FIG. 2, 10^-3M peptide, interval 8 hours and then 14 hours), the “suppressive effects on scratching as administration interval is prolonged” value is “gradually attenuated”. In addition, the “scratching behavior induced by substance P / suppressive effects” value in data set [3] (Example 3, FIG. 3, 10^-3M peptide, SP 4 hours after peptide, control 380 scratching) is recorded as “almost never induced”.
